Reference: patent publication US7198782B2, “Method for the treatment of diabetes” (priority 1998, dated 2007)

Assays:
[1] = tested on: secretion of gastric acid; assay: Inhibitory effect on the secretion of gastric acid in rats (Example 7); assay type: in vivo, rats (Wister line); settings: peptide 10 μg/kg with gastrin 4 μg/kg, hypodermic injection, gastric juice pH 10 minutes later, control pH 3.2 / 3.1
Description: The inhibitory effect on the secretion of gastric acid was evaluated using rats (Wister line), by dissolving in physiological saline, the peptides synthesized in Example 6 and gastrin, a stimulator of gastric acid secretion, hypodermically injecting the previous solution, and measuring the secretion of gastric acid 10 minutes later. Gastrin was administered to obtain a dose of 4 μg/kg and the peptides of the invention were administered to obtain a dose of 10 μg/kg. The rats were immobilized on a fixator, their gastric juice was sampled by inserting a probe through the mouth into the stomach, and the pH was measured to evaluate the secretion of gastric acid. When the secretion of gastric acid was compared between the reference group with no substance administered and the administered group, the following was obtained for the inhibition on the secretion of gastric acid.

BxPC-3 cells [2] = assay: Stimulating effect on insulin secretion, BxPC-3 cells (Example 3); assay type: cell-based, human; settings: supernatant of BxPC-3 cells, 0.01 mg/well, 24 hours; control 37.6
Description: BxPC-3 cells which are insulin producing cells derived from a human pancreas (source: Dainippon Pharmaceutical Co.,Ltd. ), were cultured in RPMI 1640 media containing 10% calf fetal serum, and grown with 5% carbon dioxide gas in a humidified incubator at 37° C. The cells were treated with trypsin prior to seeding with a density of 1×10^5/well; when they reached confluency, the peptide of the invention synthesized in Example 2, the peptides A and B, which are unrelated to the invention and whose activities are unknown, as well as a control (physiological saline) were added at 0.01 mg/well, and the cells were cultured for 24 hours. Then, the concentrations of insulin present in the supernatents were measured by colorimetry with an insulin assaying kit (source: Shibayagi Co.,Ltd.).

HIT cells = assay: Stimulation of insulin production by insulin producing cells, HIT cells (Example 5); assay type: cell-based, hamster; settings: for rate of stimulation for the production of insulin (%): HIT cells, 12 hours, no substance added = 100%
Description: (§1) HIT cells, which are insulin producing hamster pancreatic cells, and BxPC-3 cells, which are human pancreatic cells (source: Dai Nippon Seiyaku), were cultured in RPMI 1640 media (source: Dai Nippon Seiyaku) containing 10% calf fetal serum, and grown with 5% carbon dioxide gas in a humidified incubator at 37° C. The cells were treated with trypsin for seeding 96-well culture plates with a density of 1×10^4/well; when the cells reached confluency, the media was exchanged to a F12 serum-free media and the cells were cultured for 8 hours. Then, the peptides of the invention produced in Example 4 were dissolved in serum-free RPMI 1640 media; various doses of the peptides indicated by the sequence number 1 for the HIT cells, and various doses of the peptides indicated by the sequence number 5 for the BxPC-3 cells, were added to the wells and the cultures were further maintained for 12 hours. After the cultures have been performed, the stimulatory effects of the peptides of the invention on the production of insulin by the cells were measured by the insulin immunoassay, to seek stimulatory effects on production in comparison to the non-treated groups. Also, the insulin immunoassay, and the calculations for the rates of stimulation for the production of insulin were actually performed as follows. Various dilutions of the supernatents from the cell culture media were added to the wells coated with immobilized anti-insulin antibodies, and reacted with anti-insulin antibody solutions, according to the protocol of the insulin assay kit commercialized by Shibayagi (Ltd.). The detection was by reacting the biotin labeling the antibodies with the steptavidin-conjugated peroxydase and measuring the coloration catalyzed by the peroxydase. The concentration of insulin was calculated from a standard curve for insulin. When examining the rates of stimulation for the production of insulin in the groups with various doses added, by taking the rate of stimulation for the production of insulin in the reference group with no substance added as 100%, the following was obtained.

BxPC-3 cells [3] = assay: Stimulation of insulin production by insulin producing cells, BxPC-3 cells (Example 5); assay type: cell-based, human; settings: 12 hours, no substance added = 100%
Description: as §1

GH3 cells = assay: Stimulation of growth hormone production by growth hormone producing cells (Example 9); assay type: cell-based, Hamster; settings: 3 days, no peptides added = 100%
Description: Hamster-derived GH3 cells (source: IFO, deposition No. 50105), which are growth hormone-producing hypophyseal cells, were grown in an F12 media (source: Dai Nippon Seiyaku) containing 15% calf fetal serum, and grown with 5% carbon dioxide gas in a humidified incubator at 37° C. The cells were treated with trypsin for seeding 96-well culture plates with a density of 1×10^4/well; when the cells reached confluency, the media was exchanged to a 15% serum F12 media and the cells were cultured for 12 hours. Then, the peptides of the invention produced in Example 7 were dissolved in 15% serum F12 media to add various doses of the peptides to the wells, and the cultures were further maintained for 3 days. After the cultures have been performed, the stimulatory effects of the peptides on the production of growth hormones by the cells were measured by the growth hormone immunoassay, to examine stimulatory the effects on the production, in comparison with the non-treated groups. Also, the growth hormone immunoassay was performed with a method of the art, the sandwich ELISA, i.e., various dilutions of the supernatents from the cell culture media were added to wells coated with immobilized anti-growth hormone antibodies, and reacted for 180 minutes at room temperature, washed before further addition of anti-growth hormone antibodies labeled with peroxydase, and reacted for 60 minutes at room temperature. After washing, the coloring reaction catalyzed by the peroxydase was measured by measuring the absorbance. The concentration of growth hormone was examined based on standard curves obtained by performing the same sandwich ELISA using already known concentrations of growth hormone. When examining the rates of stimulation for the production of growth hormones in the groups with various doses added, by taking the rate of stimulation for the production of growth hormone for the reference group with no peptides added as 100%, the following was obtained.

Substance: Sequence No. 3: peptide predicted by comparing the cDNA sequences of the gastrin receptor; gastric acid secretion regulator (GGAGP; Artificial polypeptide which regulates insulin production.)
- Gastric juice pH [1]: 5.3 pH

Substance: Sequence No. 4: peptide predicted by comparing the cDNA sequences of the gastrin receptor; gastric acid secretion regulator (MSVGGNMLIIV; Artificial polypeptide having inhibitory effect on gastric acid secretion)
- Gastric juice pH [1]: 4.8 pH

Substance: peptide of the invention: peptide synthesized in Example 2, printed as having the amino acid sequence of sequence number 2 (GIP receptor derived insulin production regulator) (VGRDPAAAPALWRRRGTAPPLSAIVSQV; Artificial peptide which regulates insulin production)
- insulin concentration (BxPC-3 cells [2]): 148 µg/mL

Substance: sequence number 1: peptide of the missing (spliced) region predicted from glucagon receptor cDNAs; increases insulin production (PKAPSAQ; Artificial polypeptide which inhibits insulin production.)
- rate of stimulation for the production of insulin (%) (HIT cells; 0.01 μg/well): 102.8%
- rate of stimulation for the production of insulin (%) (HIT cells; 0.1 μg/well): 131.6%
- rate of stimulation for the production of insulin (%) (HIT cells; 1 μg/well): 184.9%
- rate of stimulation for the production of insulin (%) (HIT cells; 10 μg/well): 203.1%
- production of insulin by insulin producing cells (HIT cells; summary in the description, cells and dose not named): increased significantly

Substance: sequence number 5: peptide predicted from glucagon receptor cDNAs, variant of sequence number 1; increases insulin production (PQVPSAQ; Artificial polypeptide having inhibitory effects on insulin secretion)
- rate of stimulation for the production of insulin (%) (BxPC-3 cells [3]; 0.01 μg/well): 110.9%
- rate of stimulation for the production of insulin (%) (BxPC-3 cells [3]; 0.1 μg/well): 123.3%
- rate of stimulation for the production of insulin (%) (BxPC-3 cells [3]; 1 μg/well): 198.2%
- rate of stimulation for the production of insulin (%) (BxPC-3 cells [3]; 10 μg/well): 181.1%

Substance: sequence number 6: peptide predicted by comparing the amino acid sequences of somatostatin receptor; growth hormone production regulator (PSCQWVQAPACQ; Artificial polypeptide which promotes growth hormone secretion.)
- stimulation rate of growth hormone production (%) (GH3 cells; 0.01 μg/well): 101.2%
- stimulation rate of growth hormone production (%) (GH3 cells; 0.1 μg/well): 124.1%
- stimulation rate of growth hormone production (%) (GH3 cells; 1 μg/well): 175.6%
- stimulation rate of growth hormone production (%) (GH3 cells; 10 μg/well): 190.4%
